Measurements published in ChEMBL document CHEMBL3639333, “Compounds, pharmaceutical compositions and uses thereof” (2014).

The compounds below were run against Acetyl-CoA carboxylase 2 (Homo sapiens, UniProt O00763) (assay: Spectrophotometric 384 Well Assay: Malonyl CoA formation by acetyl CoA carboxylases is stoichometrically linked to the consumption of ATP. ACC2 activity is measured in a NADH-linked kinetic method measuring ADP generated during the ACC reaction using a coupled lactate dehydrogenase/pyruvate kinase reaction.For biological testing, a human ACC2 construct which lacks the 128 amino acids at the N-terminus for increased solubility (nt 385-6966 in Genbank entry AJ575592) is cloned. The protein is then expressed in insect cells using a baculoviral expression system. Protein purification is performed by anion exchange.All compounds are dissolved in dimethyl sulfoxide (DMSO) to a concentration of 10 mM.Assay reactions are then carried out in 384-well plates, with hACC2 in an appropriate dilution and at final assay concentrations (f.c.) of 100 mM Tris (pH 7.5), 10 mM trisodium citrate, 25 mM KHCO3, 10 mM MgCl2, 0.5 mg/mL BSA, 3.75 mM reduced L-glutathione, 15 U/mL lactate dehydrogenase, 0.5 mM phosphoenolpyruvate.).
Acetyl-CoA carboxylase 2, sequence (O00763 whole entry): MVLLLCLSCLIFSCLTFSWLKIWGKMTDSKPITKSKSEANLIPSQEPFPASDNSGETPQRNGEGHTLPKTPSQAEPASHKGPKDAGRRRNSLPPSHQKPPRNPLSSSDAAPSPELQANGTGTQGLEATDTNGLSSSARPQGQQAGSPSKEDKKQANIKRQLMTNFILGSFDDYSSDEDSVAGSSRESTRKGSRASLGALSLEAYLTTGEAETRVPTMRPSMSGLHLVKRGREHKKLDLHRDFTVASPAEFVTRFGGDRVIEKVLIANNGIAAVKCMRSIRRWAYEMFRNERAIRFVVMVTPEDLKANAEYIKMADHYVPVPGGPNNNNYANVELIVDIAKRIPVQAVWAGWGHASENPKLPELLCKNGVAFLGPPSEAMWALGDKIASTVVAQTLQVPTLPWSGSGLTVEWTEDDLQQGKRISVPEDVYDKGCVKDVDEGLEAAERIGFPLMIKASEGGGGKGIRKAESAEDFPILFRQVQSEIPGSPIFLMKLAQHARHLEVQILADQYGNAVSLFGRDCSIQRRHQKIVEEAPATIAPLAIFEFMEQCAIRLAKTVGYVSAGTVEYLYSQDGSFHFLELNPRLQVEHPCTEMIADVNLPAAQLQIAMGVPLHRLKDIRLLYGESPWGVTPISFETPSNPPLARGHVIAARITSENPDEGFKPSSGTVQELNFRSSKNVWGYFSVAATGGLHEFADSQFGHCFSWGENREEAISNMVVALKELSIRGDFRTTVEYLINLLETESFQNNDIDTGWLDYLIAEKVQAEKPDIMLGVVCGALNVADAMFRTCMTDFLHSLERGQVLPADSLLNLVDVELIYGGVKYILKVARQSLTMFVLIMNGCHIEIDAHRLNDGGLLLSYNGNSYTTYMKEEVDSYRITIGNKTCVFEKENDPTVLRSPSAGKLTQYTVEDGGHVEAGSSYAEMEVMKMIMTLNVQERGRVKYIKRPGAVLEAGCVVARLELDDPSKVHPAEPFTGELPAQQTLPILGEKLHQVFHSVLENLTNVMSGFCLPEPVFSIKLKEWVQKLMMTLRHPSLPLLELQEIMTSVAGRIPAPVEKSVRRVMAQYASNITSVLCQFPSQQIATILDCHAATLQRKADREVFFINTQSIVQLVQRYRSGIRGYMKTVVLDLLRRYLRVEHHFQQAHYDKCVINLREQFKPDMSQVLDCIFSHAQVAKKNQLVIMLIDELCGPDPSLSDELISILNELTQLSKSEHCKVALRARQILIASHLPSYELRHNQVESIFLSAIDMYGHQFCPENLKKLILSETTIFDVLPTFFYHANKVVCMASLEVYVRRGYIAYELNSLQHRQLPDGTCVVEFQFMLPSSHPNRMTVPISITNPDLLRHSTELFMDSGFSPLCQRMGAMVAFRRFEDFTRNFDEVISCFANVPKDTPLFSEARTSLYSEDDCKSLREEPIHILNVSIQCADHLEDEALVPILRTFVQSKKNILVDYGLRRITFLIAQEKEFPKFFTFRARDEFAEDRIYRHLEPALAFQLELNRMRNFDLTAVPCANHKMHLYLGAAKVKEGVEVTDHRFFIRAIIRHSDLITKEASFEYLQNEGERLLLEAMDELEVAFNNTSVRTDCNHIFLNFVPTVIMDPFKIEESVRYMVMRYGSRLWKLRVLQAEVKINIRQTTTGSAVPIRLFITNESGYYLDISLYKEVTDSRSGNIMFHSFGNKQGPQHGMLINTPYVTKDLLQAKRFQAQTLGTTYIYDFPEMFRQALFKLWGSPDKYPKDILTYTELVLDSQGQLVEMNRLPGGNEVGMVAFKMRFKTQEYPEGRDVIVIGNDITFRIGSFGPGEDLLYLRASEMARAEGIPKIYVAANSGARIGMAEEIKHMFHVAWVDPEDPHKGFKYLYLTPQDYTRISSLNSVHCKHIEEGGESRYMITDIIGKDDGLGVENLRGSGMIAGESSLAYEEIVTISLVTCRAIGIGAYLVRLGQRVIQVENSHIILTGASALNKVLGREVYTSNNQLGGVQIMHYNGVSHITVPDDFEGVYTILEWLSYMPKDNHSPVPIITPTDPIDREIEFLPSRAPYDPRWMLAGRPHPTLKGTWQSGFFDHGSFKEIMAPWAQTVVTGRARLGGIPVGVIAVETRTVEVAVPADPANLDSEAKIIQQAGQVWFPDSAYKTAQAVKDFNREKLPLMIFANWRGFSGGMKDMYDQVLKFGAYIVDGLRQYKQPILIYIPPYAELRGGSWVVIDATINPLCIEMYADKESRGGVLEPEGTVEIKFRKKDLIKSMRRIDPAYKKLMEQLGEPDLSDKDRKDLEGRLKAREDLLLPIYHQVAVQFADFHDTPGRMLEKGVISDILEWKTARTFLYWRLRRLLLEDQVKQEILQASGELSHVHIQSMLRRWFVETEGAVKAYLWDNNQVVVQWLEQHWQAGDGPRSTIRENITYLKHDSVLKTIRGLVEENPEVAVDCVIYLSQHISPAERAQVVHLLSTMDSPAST

IC50	Structure (SMILES)
2.1 µM	CC(=O)NC(C)Cc1ccc(C#Cc2cccc(C(=O)N3CCC3)c2)cc1 (centres undefined)
0.79 µM	CCOc1ccc(C#Cc2ccc(CC(C)NC(=O)CC3CC3)cc2)cc1 (centres undefined)
4.2 µM	CC(=O)NC(C)Cc1ccc(C#Cc2ccc(C(=O)NCC(C)C)cc2)cc1 (centres undefined)
9.9 µM	CC(=O)NC(C)Cc1ccc(C#Cc2ccnc(NCC(F)F)n2)cc1 (centres undefined)
